The source of these data is patent publication US9758492B2, “IDO inhibitors” (Bristol-Myers Squibb Company, priority 2013, dated 2017).

The target of experiment [1] is T1, IDO (Homo sapiens, UniProt P14902). The experiment is described as follows: LLE_IDO_ABS_DR (IDO assay).
Experiment [2] deals with T1, IDO. The experiment is described as follows: Kynurenine assay in Hela cells stimulated with IFN-γ to express IDO. Format: cell-based. On the set-up: endogenous in cells; host or cells: HeLa (ATCC CCL-2), stimulated with human recombinant IFN-gamma. Particulars: 20 h, read-out: Hela Kyurenine (IC50). As for the experimental part: IFNg (R&D, 28-IF-100)—resuspend at 10 ug/mL in PBS with 0.1% BSA 30% TCA
Ehrlich reagent (2% w/v p-dimethylaminobenzaldehyde in glacial acetic acid)
Cell Titer 96 Aqueous Non-Radioactive Cell Proliferation Assay, MTS (Promega, Cat # G5430)
Cell Lines and Culture Conditions
Hela cancer cell lines were acquired from the American Type Culture Collection. Cells were maintained in phenol red free-RPMI1640 medium containing high glucose and L-glutamine (Invitrogen) supplemented with 10% fetal bovine serum (FBS; Invitrogen). Cell cultures were incubated at 37° C., 5% CO2, and 100% humidity.
Cell Treatment and Kynurenine Assay
Hela cells were seeded on 96-well plates (40,000 cells per well) and allowed to adhere for 5-6 hours. Cells were then treated with vehicle (DMSO) or with IDO inhibitor at a top dose of 30 μM (3-fold dilution all the way down to 1.5 nM). A final concentration of 100 ng/mL of human recombinant IFN-γ (R&D, 28-IF-100) was immediately added to the cells to stimulate IDO expression. Treated cells were then incubated for 20 hours at 37° C. At the end of the 20 h incubation, reactions were terminated by the addition of 30% TCA to each well. Plates were incubated for 30 minutes at 50° C. to hydrolyze N-formylkynurenine to kynurenine. Cells were centrifuged 10 minutes at 2400 rpm. 100 ul of supernatants were transferred to new 96 flat well plates and mixed with 100 ul Ehrlich reagent. The resulting solution was incubated 10 minutes at RT. Absorbance at 490 nm was read using Spectra Max 384 (Molecular Devices).

The target in another experiment is T2, Human IDO1 (Homo sapiens, UniProt P14902).
T2 construct: expressed in transfected cells; host or cells: HEK293
T2 sequence (P14902 whole entry): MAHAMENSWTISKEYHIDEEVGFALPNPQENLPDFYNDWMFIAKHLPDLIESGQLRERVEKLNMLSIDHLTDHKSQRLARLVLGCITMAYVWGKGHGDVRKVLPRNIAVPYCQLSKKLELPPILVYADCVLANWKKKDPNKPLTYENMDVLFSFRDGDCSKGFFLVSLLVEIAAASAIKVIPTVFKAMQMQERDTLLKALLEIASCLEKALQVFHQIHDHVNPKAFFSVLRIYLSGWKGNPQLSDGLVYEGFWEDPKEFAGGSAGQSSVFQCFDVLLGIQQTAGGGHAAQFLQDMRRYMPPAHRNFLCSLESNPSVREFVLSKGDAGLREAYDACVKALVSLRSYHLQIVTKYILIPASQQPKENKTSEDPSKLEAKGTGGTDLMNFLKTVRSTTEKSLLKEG
Nature of the experiment: IDO Kynurenine Assay with Human IDO1/HEK293 Cells. It counts as cell-based. Particulars: read-out: HEK human IDO-1 (IC50). In outline: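 HEK293 cells stably expressing human IDO1, in phenol red-free RPMI/10% FBS, exposed to compound for 20 h at 37 °C. Stopped with 0.2% TCA (50 °C, 30 min); kynurenine in supernatant detected with Ehrlich reagent, absorbance 490 nm.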

T1 sequence (P14902 whole entry): as above

Regarding `Cc1ccc(NC(=O)Nc2cc(-c3ccccc3-c3nnn[nH]3)ccc2N(CC(C)C)CC(C)C)cc1` [Example 1, 1-(4-(Diisobutylamino)-2′-(1H-tetrazol-5-yl)biphenyl-3-yl)-3-p-tolylurea], the half-inhibitory concentration (IC50) (commonly the concentration needed to halve the response being measured) on IDO [1] worked out at 0.00345 µM; on IDO [2], 0.00137 µM; at Human IDO1 it was 0.00331 µM.
Regarding `Cc1ccc(NC(=O)Nc2cc(-c3ccccc3-c3nnn[nH]3)ccc2N(C)C2CCOCC2)cc1` [Example 50, 1-(4-(methyl(tetra-hydro-2H-pyran-4-yl)amino)-2′-(1H-tetrazol-5-yl)biphenyl-3-yl)-3-p-tolylurea], the IC50 turned out to be 0.31 µM against IDO [1] and 0.06 µM at IDO [2].
The matching figures for `Cc1ccc(NC(=O)Nc2cc(-c3ccccc3C(=O)O)ccc2N(CC(C)C)CC(C)C)cc1` [Example 52, 4′-(diisobutyl-amino)-3′-(3-p-tolylureido) biphenyl-2-carboxylic acid]: 0.01 µM and 0.00557 µM.
The matching figures for `CCN(c1ccc(-c2ccccc2-c2nnn[nH]2)cc1NC(=O)Nc1ccccc1F)C1CCCCC1` [Example 53, 1-(4-(cyclohexyl (ethyl)amino)-2′-(1H-tetrazol-5-yl)biphenyl-3-yl)-3-(2-fluorophenyl) urea]: 0.00345 µM and 0.000772 µM.
The matching figures for `COC(CN(C)c1ccc(-c2ccccc2C(=O)O)cc1NC(=O)Nc1ccc(C)cc1)OC` [Example 54, 4′-((2,2-dimethoxyethyl) (methyl)amino)-3′-(3-p-tolylureido) biphenyl-2-carboxylic acid]: 0.3 µM and 0.08 µM.
As to `COC(CN(C)c1ccc(-c2ccccc2-c2nnn[nH]2)cc1NC(=O)Nc1ccc(C)cc1)OC` [Example 55, 1-(4-((2,2-dimethoxyethyl) (methyl)amino)-2′-(1H-tetrazol-5-yl)biphenyl-3-yl)-3-p-tolylurea], the values for the IC50 against IDO [1] and at IDO [2] were 0.23 µM and 0.11 µM, respectively.
The matching figures for `COCCN(CCOC)c1ccc(-c2ccccc2C(=O)O)cc1NC(=O)Nc1ccc(C)cc1` [Example 56, 4′-(bis(2-methoxyethyl)amino)-3′-(3-p-tolylureido)biphenyl-2-carboxylic acid]: 3.59 µM and 3.12 µM.
The matching figures for `COCCN(CCOC)c1ccc(-c2ccccc2-c2nnn[nH]2)cc1NC(=O)Nc1ccc(C)cc1` [Example 57, 1-(4-(bis(2-methoxyethyl)amino)-2′-(1H-tetrazol-5-yl)biphenyl-3-yl)-3-p-tolylurea]: 0.27 µM and 0.22 µM.
The matching figures for `CCCN(CC1CC1)c1ccc(-c2ccccc2C(=O)O)cc1NC(=O)Nc1ccc(C)cc1` [Example 58, 4′-((cyclopropylmethyl) (propyl)amino)-3′-(3-p-tolylureido) biphenyl-2-carboxylic acid]: 0.1 µM and 0.06 µM.
`CCCN(CC1CC1)c1ccc(-c2ccccc2-c2nnn[nH]2)cc1NC(=O)Nc1ccc(C)cc1` [Example 59, 1-(4-((cyclopropylmethyl) (propyl)amino)-2′-(1H-tetrazol-5-yl)biphenyl-3-yl)-3-p-tolylurea]: the results for the IC50 against IDO [1] and on IDO [2] were 0.02 µM and 0.01 µM, respectively.
The matching figures for `Cc1ccc(NC(=O)Nc2cc(-c3ccccc3-c3nnn[nH]3)ccc2N(CC(F)F)CC2CC2)cc1` [Example 60, 1-(4-((cyclopropylmethyl) (2,2-difluoroethyl)amino)-2′-(1H-tetrazol-5-yl)biphenyl-3-yl)-3-p-tolylurea]: 0.14 µM and 0.14 µM.
The matching figures for `Cc1ccc(NC(=O)Nc2cc(-c3ccccc3C(=O)O)ccc2N(CC(F)F)CC2CC2)cc1` [Example 61]: 0.51 µM and 0.7 µM.
Regarding `COc1ccc(-c2ccc(N(CC(F)F)CC3CC3)c(NC(=O)Nc3ccc(C)cc3)c2)cc1C(=O)O` [Example 62, 4′-((cyclopropylmethyl) (2,2-difluoroethyl)amino)-4-methoxy-3′-(3-p-tolylureido)biphenyl-3-carboxylic acid], the 50% inhibitory concentration (IC50) worked out at 4.12 µM against IDO [1] and 2.28 µM at IDO [2].
The matching figures for `Cc1cccc(NC(=O)Nc2cc(-c3ccccc3-c3nnn[nH]3)ccc2N(C)C2CCCCC2)c1` [Example 211, 1-(4-(cyclohexyl(methyl)amino)-2′-(1H-tetrazol-5-yl)biphenyl-3-yl)-3-m-tolylurea]: 0.49 µM and 0.11 µM.
The matching figures for `CN(c1ccc(-c2ccccc2-c2nnn[nH]2)cc1NC(=O)Nc1ccccc1C(F)(F)F)C1CCCCC1` [Example 212, 1-(4-(cyclohexyl(methyl)amino)-2′-(1H-tetrazol-5-yl)biphenyl-3-yl)-3-(2-(trifluoromethyl)phenyl)urea]: 1.27 µM and 0.2 µM.
The matching figures for `Cc1ccc(NC(=O)Nc2cc(-c3ccccc3C(=O)O)ccc2N(C)C2CCCCC2)cc1` [Example 213, 4′-(cyclohexyl(methyl)amino)-3′-(3-p-tolylureido)biphenyl-2-carboxylic acid]: 0.01 µM and 0.00656 µM.
Take `CN(c1ccc(-c2ccccc2-c2nnn[nH]2)cc1NC(=O)Nc1ccccc1F)C1CCCCC1` [Example 214, 1-(4-(cyclohexyl(methyl)amino)-2′-(1H-tetrazol-5-yl)biphenyl-3-yl)-3-(2-fluorophenyl)urea]: the half-inhibitory concentration (IC50) on IDO [1] amounted to 0.00236 µM; at IDO [2], 0.00107 µM.
The matching figures for `CN(c1ccc(-c2ccccc2C(=O)O)cc1NC(=O)Nc1ccccc1Cl)C1CCCCC1` [Example 215, 3′-(3-(2-chlorophenyl)ureido)-4′-(cyclohexyl(methyl)amino) biphenyl-2-carboxylic acid]: 1.28 µM and 0.12 µM.
Regarding `CCN(c1ccc(-c2ccccc2-c2nnn[nH]2)cc1NC(=O)Nc1ccc(C)cc1)C1CCCCC1` [Example 216, 1-(4-(cyclohexyl(ethyl)amino)-2′-(1H-tetrazol-5-yl)biphenyl-3-yl)-3-p-tolylurea], the figures for the half-inhibitory concentration (IC50) against IDO [1] and at IDO [2] were 0.000835 µM and 0.000831 µM, respectively.
The matching figures for `CN(c1ccc(-c2ccccc2C(=O)O)cc1NC(=O)Nc1ccccc1)C1CCCCC1` [Example 218, 4′-(cyclohexyl(methyl)amino)-3′-(3-phenylureido)biphenyl-2-carboxylic acid]: 0.49 µM and 0.09 µM.
Regarding `CN(c1ccc(-c2ccccc2C(=O)O)cc1NC(=O)Nc1ccccc1F)C1CCCCC1` [Example 219, 4′-(cyclohexyl(methyl)amino)-3′-(3-(2-fluorophenyl)ureido) biphenyl-2-carboxylic acid], the figures for the concentration for half-maximal inhibition (IC50) on IDO [1] and on IDO [2] were 0.08 µM and 0.01 µM, respectively.
The matching figures for `COc1ccc(-c2cc(NC(=O)Nc3ccc(C)cc3)c(N(C)C3CCCCC3)cc2F)cc1C(=O)O` [Example 220, 4′-(cyclohexyl(methyl)ami-no)-2′-fluoro-4-methoxy-5′-(3-p-tolylureido)biphenyl-3-carboxylic acid]: 1.47 µM and 0.44 µM.
The matching figures for `Cc1ccc(NC(=O)Nc2cc(-c3ccccc3C(=O)O)c(F)cc2N(C)C2CCCCC2)cc1` [Example 221, 4′-(cyclohexyl(methyl)ami-no)-2′-fluoro-5′-(3-p-tolylureido)biphenyl-2-carboxylic acid]: 0.00905 µM and 0.00656 µM.
The matching figures for `Cc1ccc(NC(=O)Nc2cc(-c3ccccc3-c3nnn[nH]3)c(F)cc2N(C)C2CCCCC2)cc1` [Example 222, 1-(4-(cyclohexyl(methyl)ami-no)-6-fluoro-2′-(1H-tetrazol-5-yl)biphenyl-3-yl)-3-p-tolylurea]: 0.01 µM and 0.00263 µM.
On to `Cc1ccc(NC(=O)Nc2cc(-c3ccccc3-c3nnn[nH]3)c(F)cc2N(CC(F)F)CC2CC2)cc1` [Example 223, 1-(4-((cyclopropylmethyl)(2,2-difluoroethyl)amino)-6-fluoro-2′-(1H-tetrazol-5-yl)biphenyl-3-yl)-3-p-tolylurea], for which the IC50 came to 0.42 µM against IDO [1] and 0.16 µM on IDO [2].
As to `Cc1ccc(NC(=O)Nc2cc(-c3ccccc3C(=O)O)c(F)cc2N(CC(F)F)CC2CC2)cc1` [Example 224, 4′-((cyclopropylmethyl)(2,2-difluoroethyl)amino)-2′-fluoro-5′-(3-p-tolylureido)biphenyl-2-carboxylic acid], the IC50 worked out at 0.64 µM on IDO [1] and 0.44 µM on IDO [2].
